The values that follow come from patent US9717247B2, “Synergistic fungicidal active combinations” (BAYER CROPSCIENCE AG, priority 2003, dated 2017).

One assay has as its system Pyricularia oryzae. The class given is cell-based. The note with it: 3 ppm; in vitro, PDB, 3 days of incubation.
For assay [1], the system named is Leptosphaeria nodorum. Nature of the assay: Leptosphaeria nodorum test (wheat)/protective. The class given is in vivo. The conditions noted are these: application rate 25 g/ha, protective, evaluation 11 days after inoculation.
Assay [2] has as its system Erysiphe graminis f.sp. hordei. The assay can be described thus: Erysiphe test (barley)/curative. The class given is in vivo. The conditions noted are these: application rate 25 g/ha, curative, evaluation 6 days after inoculation.
For assay [3], the system named is Erysiphe graminis f.sp. hordei. Nature of the assay: Erysiphe test (barley)/protective. It counts as in vivo. The conditions noted are these: application rate 12.5 g/ha, protective, evaluation 6 days after inoculation.
In a further assay the test system is Sphaerotheca fuliginea. The assay can be described thus: Sphaerotheca fuliginea test (cucumber)/protective. The class given is in vivo. The conditions noted are these: Podosphaera fuliginea, 168 h, protective, 7 days after inoculation, read-out: Efficacy in % found; for pest or weed control at 1 g/ha: application rate 1 g/ha.
The subject of a further assay is Gibberella zeae. It counts as cell-based. The conditions noted are these: 0.3 ppm; in vitro, PDB, 3 days of incubation.
For assay [4], the system named is Leptosphaeria nodorum. Nature of the assay: Leptosphaeria nodorum test (wheat)/curative. The note with it: application rate 25 g/ha, curative, evaluation 8 days after inoculation.
Description: Leptosphaeria nodorum Test (Wheat)/Curative • Solvent: 50 parts by weight of N,N-dimethylacetamide • Emulsifier: 1 part by weight of alkylaryl polyglycol ether
To test for curative activity, young plants are sprayed with a conidia suspension of Leptosphaeria nodorum.
The plants are placed in a greenhouse at a temperature of about 15° C. and a relative atmospheric humidity of about 80%.
(§1) Evaluation is carried out 8 days after the inoculation.
The next assay relates to Alternaria solani. Nature of the assay: Alternaria solani test (tomato)/protective. The class given is in vivo. The note with it: protective, 3 days after inoculation.
For a further assay, the system named is Rhizoctonia solani. Nature of the assay: Rhizoctonia solani test (in vitro)/microtitre plates. It counts as cell-based. The conditions noted are these: PDB, 5 days of incubation. Here is the method:
Rhizoctonia solani Test (In Vitro)/Microtitre Plates The microtest is carried out in microtitre plates using potato dextrose broth (PDB) as liquid test medium. The active compounds are used as technical grade a.i., dissolved in acetone. For inoculation, a mycelium suspension of Rhizoctonia solani is used. After 5 days of incubation in the dark and with shaking (10 Hz) for each filled cavity of the microtitre plates, the light transmittance is determined with the aid of a spectrophotometer.

In assay [5] the test system is Botrytis cinerea. The assay can be described thus: Botrytis cinerea test (in vitro)/microtitre plates. It counts as cell-based. The note with it: 3 ppm, PDB, 7 days of incubation.
A further assay has as its system Puccinia recondita. The assay can be described thus: Puccinia recondita test (wheat)/curative. The conditions noted are these: application rate 62.5 g/ha, curative, evaluation 8 days after inoculation.
The subject of another assay is Plasmopara viticola. The assay can be described thus: Plasmopara viticola test (grapevine)/protective. It counts as in vivo. The note with it: protective, 6 days after inoculation.
For assay [6], the system named is Botrytis cinerea. The assay can be described thus: Botrytis cinerea test (bean)/protective. The conditions noted are these: protective, 2 days after inoculation.
Description: After the spray coating has dried on, 2 small pieces of agar colonized by Botrytis cinerea are placed onto each leaf. The inoculated plants are placed in a darkened chamber at about 20° C. and 100% relative atmospheric humidity.
The size of the infected areas on the leaves is evaluated 2 days after the inoculation.
The subject of the next assay is Pyrenophora teres. Nature of the assay: Pyrenophora teres test (barley)/curative. The note with it: in Hordeum vulgare, 288 h, read-out: Efficacy in % found.

Description for Puccinia recondita: Puccinia recondita Test (Wheat)/Curative • Solvent: 50 parts by weight of N,N-dimethylacetamide • Emulsifier: 1 part by weight of alkylaryl polyglycol ether
To test for curative activity, young plants are sprayed with a conidia suspension of Puccinia recondita. The plants remain in an incubation cabinet at 20° C. and 100% relative atmospheric humidity for 48 hours.
The plants are placed in a greenhouse at a temperature of about 20° C. and a relative atmospheric humidity of about 80% to promote the development of rust pustules.
as §1
Description for Pyrenophora teres: Pyrenophora teres Test (Barley)/Curative • Solvent: 50 parts by weight of N,N-dimethylacetamide • Emulsifier: 1 part by weight of alkylaryl polyglycol ether
To test for curative activity, young plants are sprayed with a conidia suspension of Pyrenophora teres. The plants remain in an incubation cabinet at 20° C. and 100% relative atmospheric humidity for 48 hours.
The plants are placed in a greenhouse at a temperature of about 20° C. and a relative atmospheric humidity of about 80%.
Evaluation is carried out 12 days after the inoculation.

For the compound `[O-][n+]1nc(-n2ccnc2)nc2ccc(Cl)cc21` [(14-3) triazoxide, triazoxide], the “Efficacy in % found” value in the assay on Pyricularia oryzae is listed as 3%.
For `OC(Cc1ccccc1Cl)(Cn1nc[nH]c1=S)C1(Cl)CC1` (stereo not drawn) [(3-15) prothioconazole, prothioconazole], the “Efficacy in % found” value in the assay on Leptosphaeria nodorum [1] came out at 13%; in assay [2], 22%; in assay [3], 67%. The pest or weed control at 1 g/ha with Sphaerotheca fuliginea came out at 43%.
`CSC1=N[C@@](C)(c2ccccc2)C(=O)N1Nc1ccccc1` [(19-3) fenamidone]: in the assay on Gibberella zeae, the “Efficacy in % found” value stood at 15%.
For the compound `CC(C)CC(C)c1ccccc1NC(=O)c1ccccc1I` (stereo not drawn) [(1-13), N-[2-(1,3-dimethylbutyl)phenyl]-2-iodobenzamide], the “Efficacy in % found” value in the assay on Leptosphaeria nodorum [4] was found to be 0%; in the assay with Leptosphaeria nodorum [1], 13%; in assay [3], 0%; with Alternaria solani (application rate 2 g/ha) it was 0%. In the assay with Sphaerotheca fuliginea, the pest or weed control at 1 g/ha came to 10%.
Consider `Cc1nn(C)c(F)c1C(=O)Nc1ccccc1C(C)CC(C)C` (stereo not drawn) [(1-2), N-[2-(1,3-dimethylbutyl)phenyl]-5-fluoro-1,3-dimethyl-1H-pyrazole-4-carboxamide], for which the “Efficacy in % found” value in the assay with Rhizoctonia solani (0.003 ppm) is 30%; with Rhizoctonia solani (1 ppm), 40%; with Pyricularia oryzae it was 17%; in [2] it was 0%; in the assay with Botrytis cinerea [5], 35%; in the assay with Gibberella zeae, 39%. Moreover, the “Efficacy in % found” value in the assay on Puccinia recondita is 94%; in assay [3], 0%; in the assay on Plasmopara viticola (application rate 25 g/ha), 0%; in the assay on Plasmopara viticola (application rate 50 g/ha) it was 0%; in the assay with Botrytis cinerea [6] (application rate 5 g/ha), 33%; in the assay on Botrytis cinerea [6] (application rate 10 g/ha), 64%. In addition, the “Efficacy in % found” value is 66% in the assay on Botrytis cinerea [6] (application rate 20 g/ha), 3% in the assay with Alternaria solani (application rate 1 g/ha) and 23% in the assay with Alternaria solani (application rate 2 g/ha). Moreover, in the assay on Sphaerotheca fuliginea (application rate 0.5 g/ha), the pest or weed control at 0.5 g/ha came out at 0%. Besides, the pest or weed control at 1 g/ha in the assay on Sphaerotheca fuliginea is 18%. In the assay with Sphaerotheca fuliginea (application rate 2 g/ha), the pest or weed control at 2 g/ha is 30%. In addition, the pest or weed control at 4 g/ha in the assay with Sphaerotheca fuliginea (application rate 4 g/ha) was 20%. In addition, the pest or weed control at 25 g/ha with Pyrenophora teres turned out to be 29%. Also, the pest or weed control at 62.5 g/ha in the assay on Pyrenophora teres came to 71%.
As for `COC(=O)Nc1nc2ccccc2[nH]1` [(10-3) carbendazim, carbendazim], the “Efficacy in % found” value in the assay on Botrytis cinerea [5] stood at 86%.
